Data taken from PMC6566410, “Novel Diamide-Based Benzenesulfonamides as Selective Carbonic Anhydrase IX Inhibitors Endowed with Antitumor Activity: Synthesis, Biological Evaluation and In Silico Insights” (International Journal of Molecular Sciences, 2019).

Legend:
Experiment in all cases: NCI one-dose SRB assay
Type in all cases: cell-based
[1] = system: A549/ATCC; details: Homo sapiens, A549/ATCC (Non-Small Cell Lung Cancer), 1.00E-5 Molar, read-out: Growth Percent
Protocol: (§1) First, all diamide-based benzenesulfonamides herein reported 5a–h were screened for their antitumor activity at one dose (10^−5 M) assay against a panel of sixty cancer cell lines through the National Cancer Institute (NCI) Developmental Therapeutic Program (www.dtp.nci.nih.gov), according to US-NCI protocol. The cell growth and cell viability were evaluated using the sulforhodamine B (SRB) colorimetric assay.
(§2) This assay was carried out according to the protocol of the Drug Evaluation Branch, NCI, Bethesda. The cell growth and cell viability were evaluated using the sulforhodamine B (SRB) colorimetric assay, as reported earlier.

[2] = system: K-562; details: Homo sapiens, K562, K-562 (Leukemia), 1.00E-5 Molar, read-out: Growth Percent
Protocol: as §1, §2

[3] = system: OVCAR-5; details: Homo sapiens, OVCAR-5 (Ovarian Cancer), 1.00E-5 Molar, read-out: Growth Percent
Protocol: as §1, §2

[4] = system: MDA-MB-231/ATCC; details: Homo sapiens, MDA-MB-231/ATCC (Breast Cancer), 1.00E-5 Molar, read-out: Growth Percent
Protocol: as §1, §2

[5] = system: LOX IMVI; details: Homo sapiens, LOX IMVI (Melanoma), 1.00E-5 Molar, read-out: Growth Percent
Protocol: as §1, §2

[6] = system: RXF 393; details: Homo sapiens, RXF 393 (Renal Cancer), 1.00E-5 Molar, read-out: Growth Percent
Protocol: as §1, §2

[7] = system: MDA-MB-435; details: Homo sapiens, MDA-MB-435 (Melanoma), 1.00E-5 Molar, read-out: Growth Percent
Protocol: as §1, §2

[8] = system: SF-539; details: Homo sapiens, SF-539 (CNS Cancer), 1.00E-5 Molar, read-out: Growth Percent
Protocol: as §1, §2

[9] = system: SK-MEL-2; details: Homo sapiens, SK-MEL-2 (Melanoma), 1.00E-5 Molar, read-out: Growth Percent
Protocol: as §1, §2

[10] = system: A498; details: Homo sapiens, A498 (Renal Cancer), 1.00E-5 Molar, read-out: Growth Percent
Protocol: as §1, §2

[11] = system: SN12C; details: Homo sapiens, SN12C (Renal Cancer), 1.00E-5 Molar, read-out: Growth Percent
Protocol: as §1, §2

[12] = system: HCT-116; details: Homo sapiens, HCT-116 (Colon Cancer), 1.00E-5 Molar, read-out: Growth Percent
Protocol: as §1, §2

[13] = system: HOP-62; details: Homo sapiens, HOP-62 (Non-Small Cell Lung Cancer), 1.00E-5 Molar, read-out: Growth Percent
Protocol: as §1, §2

[14] = system: DU-145; details: Homo sapiens, DU-145 (Prostate Cancer), 1.00E-5 Molar, read-out: Growth Percent
Protocol: as §1, §2

[15] = system: NCI-H322M; details: Homo sapiens, NCI-H322M (Non-Small Cell Lung Cancer), 1.00E-5 Molar, read-out: Growth Percent
Protocol: as §1, §2

[16] = system: SF-295; details: Homo sapiens, SF-295 (CNS Cancer), 1.00E-5 Molar, read-out: Growth Percent
Protocol: as §1, §2

[17] = system: T-47D; details: Homo sapiens, T47D, T-47D (Breast Cancer), 1.00E-5 Molar, read-out: Growth Percent
Protocol: as §1, §2

[18] = system: M14; details: Homo sapiens, M14 (Melanoma), 1.00E-5 Molar, read-out: Growth Percent
Protocol: as §1, §2

[19] = system: SF-268; details: Homo sapiens, SF-268 (CNS Cancer), 1.00E-5 Molar, read-out: Growth Percent
Protocol: as §1, §2

[20] = system: EKVX; details: Homo sapiens, EKVX (Non-Small Cell Lung Cancer), 1.00E-5 Molar, read-out: Growth Percent
Protocol: as §1, §2

[21] = system: OVCAR-4; details: Homo sapiens, OVCAR-4 (Ovarian Cancer), 1.00E-5 Molar, read-out: Growth Percent
Protocol: as §1, §2

[22] = system: 786-0; details: Homo sapiens, 786-0 (Renal Cancer), 1.00E-5 Molar, read-out: Growth Percent
Protocol: as §1, §2

[23] = system: NCI-H522; details: Homo sapiens, NCI-H522 (Non-Small Cell Lung Cancer), 1.00E-5 Molar, read-out: Growth Percent
Protocol: as §1, §2

[24] = system: NCI/ADR-RES; details: Homo sapiens, NCI/ADR-RES (Ovarian Cancer), 1.00E-5 Molar, read-out: Growth Percent
Protocol: as §1, §2

[25] = system: SK-MEL-5; details: Homo sapiens, SK-MEL-5 (Melanoma), 1.00E-5 Molar, read-out: Growth Percent
Protocol: as §1, §2

[26] = system: SNB-19; details: Homo sapiens, SNB-19 (CNS Cancer), 1.00E-5 Molar, read-out: Growth Percent
Protocol: as §1, §2

[27] = system: SW-620; details: Homo sapiens, SW-620 (Colon Cancer), 1.00E-5 Molar, read-out: Growth Percent
Protocol: as §1, §2

[28] = system: HCC-2998; details: Homo sapiens, HCC-2998 (Colon Cancer), 1.00E-5 Molar, read-out: Growth Percent
Protocol: as §1, §2

[29] = system: SK-MEL-28; details: Homo sapiens, SK-MEL-28 (Melanoma), 1.00E-5 Molar, read-out: Growth Percent
Protocol: as §1, §2

[30] = system: NCI-H23; details: Homo sapiens, NCI-H23 (Non-Small Cell Lung Cancer), 1.00E-5 Molar, read-out: Growth Percent
Protocol: as §1, §2

[31] = system: CCRF-CEM; details: Homo sapiens, CCRF-CEM (Leukemia), 1.00E-5 Molar, read-out: Growth Percent
Protocol: as §1, §2

| SMILES | activity at 10 µM [1] | activity at 10 µM [2] | activity at 10 µM [3] | activity at 10 µM [4] | activity at 10 µM [5] | activity at 10 µM [6] | activity at 10 µM [7] | activity at 10 µM [8] | activity at 10 µM [9] | activity at 10 µM [10] | activity at 10 µM [11] | activity at 10 µM [12] | activity at 10 µM [13] | activity at 10 µM [14] | activity at 10 µM [15] | activity at 10 µM [16] | activity at 10 µM [17] | activity at 10 µM [18] | activity at 10 µM [19] | activity at 10 µM [20] | also measured |
| --- | --- | --- | --- | --- | --- | --- | --- | --- | --- | --- | --- | --- | --- | --- | --- | --- | --- | --- | --- | --- | --- |
| NS(=O)(=O)c1ccc(NC(=O)C(=Cc2ccc(Br)cc2)NC(=O)c2ccccc2)cc1 [Compound 5c, N-(1-(4-Bromophenyl)-3-oxo-3-((4-sulfamoylphenyl)amino)prop-1-en-2-yl)benzamide] | 102% | 92.8% | 99.8% | 105% | 99.7% | 95.8% | 95% | 92.8% | 97.3% | 94.5% | 99.4% | 92% | 104% | 108% | 100% | 99.2% | 92.1% | 109% | 99.6% | 102% | activity at 10 µM [21]: 93.7%; activity at 10 µM [22]: 96%; activity at 10 µM [23]: 87.9%; activity at 10 µM [24]: 102%; activity at 10 µM [25]: 93.1%; activity at 10 µM [26]: 95.1%; activity at 10 µM [27]: 104%; activity at 10 µM [28]: 103%; activity at 10 µM [29]: 113%; activity at 10 µM [30]: 100%; activity at 10 µM [31]: 99.4% |
| COc1ccc(C=C(NC(=O)c2ccccc2)C(=O)Nc2ccc(S(N)(=O)=O)cc2)cc1OC [Compound 5g, N-(1-(3,4-Dimethoxyphenyl)-3-oxo-3-((4-sulfamoylphenyl)amino)prop-1-en-2-yl)benzamide] | 106% | 108% | 103% | 105% | 100% | 118% | 107% | 92.6% | 102% | 109% | 97.6% | 109% | 102% | 117% | 110% | 102% | 100% | 113% | 104% | 103% | activity at 10 µM [21]: 105%; activity at 10 µM [22]: 109%; activity at 10 µM [23]: 89.1%; activity at 10 µM [24]: 104%; activity at 10 µM [25]: 99.3%; activity at 10 µM [26]: 100%; activity at 10 µM [27]: 102%; activity at 10 µM [28]: 106%; activity at 10 µM [29]: 109%; activity at 10 µM [30]: 102%; activity at 10 µM [31]: 109% |
| Cc1ccc(C=C(NC(=O)c2ccccc2)C(=O)Nc2ccc(S(N)(=O)=O)cc2)o1 [Compound 5h, N-(1-(5-Methylfuran-2-yl)-3-oxo-3-((4-sulfamoylphenyl)amino)prop-1-en-2-yl)benzamide] | 90.6% | 96.1% | 100% | 97.4% | 94.9% | 95.5% | 99.3% | 90.2% | 97.4% | 99.8% | 98.6% | 89.1% | 95.2% | 99.9% | 106% | 94.2% | 85.8% | 114% | 100% | 98% | activity at 10 µM [21]: 86.2%; activity at 10 µM [22]: 98.7%; activity at 10 µM [23]: 85.7%; activity at 10 µM [24]: 92.2%; activity at 10 µM [25]: 82.3%; activity at 10 µM [26]: 96.4%; activity at 10 µM [27]: 106%; activity at 10 µM [28]: 104%; activity at 10 µM [29]: 114%; activity at 10 µM [30]: 98.9%; activity at 10 µM [31]: 96.9% |
